Reference: patent US9233964B2, “Sulfamide piperazine derivatives as protein tyrosine kinase inhibitors and pharmaceutical use therof” (LEO PHARMA A/S, priority 2011, dated 2016)
pEC50: −log10 of the molar value.

Experiments:
Type in all cases: biochemical
[1] = biological target: T1, JAK1 (Homo sapiens, UniProt P23458); experiment: JAK kinase assay (HTRF, phosphorylation of synthetic peptide), JAK1; conditions: catalytic domain, ATP at Km (7 μM); read-out: JAK1 kinase inhibitory activity (EC50)
T1 construct: JAK1 (aa 850-1154) and TYK2 (aa 871-1187) are expressed with an N-terminally fused GST-tag; GST (N); purchased Carna Biosciences, Inc; host or cells: baculovirus expression system
Description: (§1) Human baculovirus-expressed JAK1, 2, 3 and TYK2 were purchased from Carna Biosciences, Inc. All four purified enzymes contain only the catalytic domain. JAK1 (aa 850-1154) and TYK2 (aa 871-1187) are expressed with an N-terminally fused GST-tag, and JAK2 and JAK3 with an N-terminally fused His-tag.
(§2) Inhibition of phosphorylation of a synthetic peptide was measured in an HTRF-based assay using the TK substrate-Biotin from the Cisbio HTRFKinEASE TK kit. First, 2 μl of TK solution (TK substrate-biotin in kinase buffer [1× enzymatic buffer from HTRFKinEASE TK kit, 1 mM DTT]) is added to a plate containing 1 μl prediluted compound (final assay concentration DMSO: 0.75%). Then, 5 μl kinase-ATP mix (prepared in kinase buffer) is added to the wells and the plates are incubated at RT for 20-30 min. For all four kinases a concentration of ATP that corresponded to the Km for ATP was used. The final concentrations of buffers, substrate, kinase and ATP were: JAK1: 50 mM Hepes buffer pH 7.0, 0.01% BSA, 10 mM MgCl2, 1 mM DTT, 7 μM ATP, 50 nM SEB, 1 μM TK Substrate-Biotin and 5 ng JAK1; JAK2: 50 mM Hepes buffer pH 7.0, 0.01% BSA, 5 mM MgCl2, 1 mM DTT, 4 μM ATP, 1 μM TK Substrate-Biotin and 0.1 ng JAK2; JAK3: 50 mM Hepes buffer pH 7.0, 0.01% BSA, 5 mM MgCl2, 1 mM DTT, 2 μM ATP, 1 μM TK Substrate-Biotin and 0.3 ng JAK3; TYK2: 50 mM Hepes buffer pH 7.0, 0.01% BSA, 5 mM MgCl2, 1 mM DTT, 13 μM ATP, 50 nM SEB, 1 μM TK Substrate-Biotin and 0.8 ng TYK2. Thereafter, the kinase reaction is stopped by adding 4 μl detection mix (final concentrations: 50 mM Hepes buffer pH 7.0, 0.01% BSA, 0.8 M KF, 20 mM EDTA, 42 nM Streptavidin-XL665 and 1:400 STK Ab Cryptate) and the plates are incubated overnight in the dark. The HTRF signal is read using an Envision plate reader.

[2] = biological target: T2, JAK2 (Homo sapiens, UniProt O60674); experiment: JAK kinase assay (HTRF, phosphorylation of synthetic peptide), JAK2; conditions: catalytic domain, ATP at Km (4 μM); read-out: JAK2 kinase inhibitory activity (EC50)
T2 construct: All four purified enzymes contain only the catalytic domain; His (N); purchased Carna Biosciences, Inc; host or cells: baculovirus expression system
Description: as §1, §2

[3] = biological target: T3, JAK3 (Homo sapiens, UniProt P52333); experiment: JAK kinase assay (HTRF, phosphorylation of synthetic peptide), JAK3; conditions: catalytic domain, ATP at Km (2 μM); read-out: JAK3 kinase inhibitory activity (EC50)
T3 construct: All four purified enzymes contain only the catalytic domain; His (N); purchased Carna Biosciences, Inc; host or cells: baculovirus expression system
Description: as §1, §2

[4] = biological target: T4, TYK2 (Homo sapiens, UniProt P29597); experiment: JAK kinase assay (HTRF, phosphorylation of synthetic peptide), TYK2; conditions: catalytic domain, ATP at Km (13 μM); read-out: TYK2 kinase inhibitory activity (EC50)
T4 construct: JAK1 (aa 850-1154) and TYK2 (aa 871-1187) are expressed with an N-terminally fused GST-tag; GST (N); purchased Carna Biosciences, Inc; host or cells: baculovirus expression system
T4 sequence (P29597 871-1187): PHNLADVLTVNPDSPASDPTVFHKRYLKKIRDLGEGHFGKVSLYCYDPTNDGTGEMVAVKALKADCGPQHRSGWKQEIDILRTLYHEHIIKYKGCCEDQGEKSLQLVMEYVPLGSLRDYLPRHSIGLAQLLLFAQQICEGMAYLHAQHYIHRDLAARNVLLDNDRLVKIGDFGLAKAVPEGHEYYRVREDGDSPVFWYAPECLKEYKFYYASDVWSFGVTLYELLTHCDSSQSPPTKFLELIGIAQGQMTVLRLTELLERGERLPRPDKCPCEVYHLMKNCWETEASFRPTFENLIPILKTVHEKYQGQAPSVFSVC
Description: as §1, §2

T2 sequence (O60674 849-1124 limits assumed): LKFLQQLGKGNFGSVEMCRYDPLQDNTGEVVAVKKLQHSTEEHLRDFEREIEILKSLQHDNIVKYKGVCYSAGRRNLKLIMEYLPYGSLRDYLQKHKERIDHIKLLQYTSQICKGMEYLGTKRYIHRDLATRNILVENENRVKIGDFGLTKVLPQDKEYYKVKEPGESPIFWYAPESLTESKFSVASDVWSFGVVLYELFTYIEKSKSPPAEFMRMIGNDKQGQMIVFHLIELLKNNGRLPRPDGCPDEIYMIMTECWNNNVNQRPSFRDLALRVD
T1 sequence (P23458 850-1154): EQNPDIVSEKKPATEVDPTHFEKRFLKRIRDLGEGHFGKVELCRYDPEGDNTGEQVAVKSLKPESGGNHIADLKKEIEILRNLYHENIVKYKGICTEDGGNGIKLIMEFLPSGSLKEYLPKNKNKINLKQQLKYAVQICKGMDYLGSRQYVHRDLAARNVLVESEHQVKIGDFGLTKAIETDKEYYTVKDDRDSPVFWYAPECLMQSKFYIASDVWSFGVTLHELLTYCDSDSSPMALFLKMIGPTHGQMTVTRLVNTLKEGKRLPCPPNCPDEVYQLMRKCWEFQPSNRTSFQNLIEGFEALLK
T3 sequence (P52333 822-1111 limits assumed): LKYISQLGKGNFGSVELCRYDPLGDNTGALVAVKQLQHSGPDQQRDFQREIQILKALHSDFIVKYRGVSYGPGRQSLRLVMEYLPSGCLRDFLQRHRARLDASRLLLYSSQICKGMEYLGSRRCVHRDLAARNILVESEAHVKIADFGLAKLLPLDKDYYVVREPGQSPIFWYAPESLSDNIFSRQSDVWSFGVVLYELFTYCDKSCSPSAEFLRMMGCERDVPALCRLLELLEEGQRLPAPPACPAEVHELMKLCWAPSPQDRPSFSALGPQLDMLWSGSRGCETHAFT

| pEC50 [1] | pEC50 [2] | pEC50 [3] | pEC50 [4] | SMILES |
| --- | --- | --- | --- | --- |
| > 7.00 | > 7.00 | > 7.00 | 6.30 to 7.00 | CN(C[C@@H]1CCCN1C(=O)CCO)S(=O)(=O)N1CCN(c2ncnc3[nH]ccc23)CC12CC2 [Example 193, N-[[(2S)-1-(3-hydroxypropanoyl)pyrrolidin-2-yl]methyl]-N-methyl-5-(7H-pyrrolo[2,3-d]pyrimidin-4-yl)-5,8-diazaspiro[2.5]octane-8-sulfonamide] |
| > 7.00 | > 7.00 | 6.30 to 7.00 | 6.30 to 7.00 | COCCN(C1CCC1)S(=O)(=O)N1CCN(c2ncnc3[nH]ccc23)CC12CC2 [Example 103, N-cyclobutyl-N-(2-methoxyethyl)-5-(7H-pyrrolo[2,3-d]pyrimidin-4-yl)-5,8-diazaspiro[2.5]octane-8-sulfonamide] |
| > 7.00 | > 7.00 | > 7.00 | > 7.00 | CN(Cc1cccc(S(N)(=O)=O)c1)S(=O)(=O)N1CCN(c2ncnc3[nH]ccc23)CC12CC2 [Example 90, N-methyl-5-(7H-pyrrolo[2,3-d]pyrimidin-4-yl)-N-[(3-sulfamoylphenyl)methyl]-5,8-diazaspiro[2.5]octane-8-sulfonamide] |
| > 7.00 | > 7.00 | > 7.00 | 6.30 to 7.00 | CN(CCn1cccn1)S(=O)(=O)N1CCN(c2ncnc3[nH]ccc23)CC12CC2 [Example 66, N-methyl-N-(2-pyrazol-1-ylethyl)-5-(7H-pyrrolo[2,3-d]pyrimidin-4-yl)-5,8-diazaspiro[2.5]octane-8-sulfonamide] |
| > 7.00 | > 7.00 | > 7.00 | > 7.00 | CN(C[C@@H]1CCC(=O)N1)S(=O)(=O)N1CCN(c2ncnc3[nH]ccc23)CC12CC2 [Example 183, N-methyl-N-[[(2S)-5-oxopyrrolidin-2-yl]methyl]-5-(7H-pyrrolo[2,3-d]pyrimidin-4-yl)-5,8-diazaspiro[2.5]octane-8-sulfonamide] |
| > 7.00 | > 7.00 | 6.30 to 7.00 | < 6.30 | CN(CCCc1cccc(C#N)c1)S(=O)(=O)N1CCN(c2ncnc3[nH]ccc23)CC12CC2 [Example 30, 7-(7H-Pyrrolo[2,3-d]pyrimidin-4-yl)-4,7-diaza-spiro[2.5]octane-4-sulfonic acid [3-(3-cyano-phenyl)-propyl]-methyl-amide] |
| > 7.00 | > 7.00 | > 7.00 | 6.30 to 7.00 | COC(=O)CN(C)S(=O)(=O)N1CCN(c2ncnc3[nH]ccc23)CC12CC2 [Example 34, {Methyl-[7-(7H-pyrrolo[2,3-d]pyrimidin-4-yl)-4,7-diaza-spiro[2.5]octane-4-sulfonyl]-amino}-acetic acid methyl ester] |
| > 7.00 | > 7.00 | > 7.00 | 6.30 to 7.00 | COc1ccc(CCN(C)S(=O)(=O)N2CCN(c3ncnc4[nH]ccc34)CC23CC3)cc1OC [Example 51, 7-(7H-Pyrrolo[2,3-d]pyrimidin-4-yl)-4,7-diaza-spiro[2.5]octane-4-sulfonic acid [2-(3,4-dimethoxy-phenyl)-ethyl]-methyl-amide] |
| > 7.00 | > 7.00 | 6.30 to 7.00 | < 6.30 | CN(CC(=O)c1ccccc1)S(=O)(=O)N1CCN(c2ncnc3[nH]ccc23)CC12CC2 [Example 12, 7-(7H-Pyrrolo[2,3-d]pyrimidin-4-yl)-4,7-diaza-spiro[2.5]octane-4-sulfonic acid methyl-(2-oxo-2-phenyl-ethyl)-amide] |
| < 6.30 | < 6.30 | < 6.30 | < 6.30 | O=S(=O)(N(CCc1ccccc1)CC1CCCCC1)N1CCN(c2ncnc3[nH]ccc23)CC12CC2 [Example 8, 7-(7H-Pyrrolo[2,3-d]pyrimidin-4-yl)-4,7-diaza-spiro[2.5]octane-4-sulfonic acid cyclohexylmethyl-phenethyl-amide] |
| > 7.00 | > 7.00 | 6.30 to 7.00 | < 6.30 | CN(CCCc1ccc(C#N)cc1)S(=O)(=O)N1CCN(c2ncnc3[nH]ccc23)CC12CC2 [Example 29, 7-(7H-Pyrrolo[2,3-d]pyrimidin-4-yl)-4,7-diaza-spiro[2.5]octane-4-sulfonic acid [3-(4-cyano-phenyl)-propyl]-methyl-amide] |
| > 7.00 | > 7.00 |  | < 6.30 | CN(Cc1ccc(C(F)(F)F)cc1)S(=O)(=O)N1CCN(c2ncnc3[nH]ccc23)CC12CC2 [Example 81, N-methyl-5-(7H-pyrrolo[2,3-d]pyrimidin-4-yl)-N-[[4-(trifluoromethyl)phenyl]methyl]-5,8-diazaspiro[2.5]octane-8-sulfonamide] |
| > 7.00 | > 7.00 | > 7.00 | 6.30 to 7.00 | CN(CC1CCN(S(=O)(=O)CC2CC2)C1)S(=O)(=O)N1CCN(c2ncnc3[nH]ccc23)CC12CC2 (stereo not drawn) [Example 122, N-[[1-(cyclopropylmethylsulfonyl)pyrrolidin-3-yl]methyl]-N-methyl-5-(7H-pyrrolo[2,3-d]pyrimidin-4-yl)-5,8-diazaspiro[2.5]octane-8-sulfonamide] |
| > 7.00 | > 7.00 | > 7.00 | > 7.00 | CN(C[C@H]1CCCN1S(=O)(=O)CCCC#N)S(=O)(=O)N1CCN(c2ncnc3[nH]ccc23)CC12CC2 [Example 182, N-[[(2R)-1-(3-cyanopropylsulfonyl)pyrrolidin-2-yl]methyl]-N-methyl-5-(7H-pyrrolo[2,3-d]pyrimidin-4-yl)-5,8-diazaspiro[2.5]octane-8-sulfonamide] |
| > 7.00 | > 7.00 | 6.30 to 7.00 | < 6.30 | O=S(=O)(NCCc1ccccc1)N1CCN(c2ncnc3[nH]ccc23)CC12CC2 [Int 5] |
| > 7.00 | > 7.00 | > 7.00 | 6.30 to 7.00 | CN(Cc1ccc(F)cc1)S(=O)(=O)N1CCN(c2ncnc3[nH]ccc23)CC12CC2 [Example 79, N-[(4-fluorophenyl)methyl]-N-methyl-5-(7H-pyrrolo[2,3-d]pyrimidin-4-yl)-5,8-diazaspiro[2.5]octane-8-sulfonamide] |
| > 7.00 | > 7.00 | > 7.00 |  | N#CCCCCN(CCc1ccccc1)S(=O)(=O)N1CCN(c2ncnc3[nH]ccc23)CC12CC2 [Example 20, 7-(7H-Pyrrolo[2,3-d]pyrimidin-4-yl)-4,7-diaza-spiro[2.5]octane-4-sulfonic acid (4-cyano-butyl)-phenethyl-amide] |
| > 7.00 | > 7.00 | > 7.00 |  | N#CCCCN(CCc1ccccc1)S(=O)(=O)N1CCN(c2ncnc3[nH]ccc23)CC12CC2 [Example 33, 7-(7H-Pyrrolo[2,3-d]pyrimidin-4-yl)-4,7-diaza-spiro[2.5]octane-4-sulfonic acid (3-cyano-propyl)-phenethyl-amide] |
| > 7.00 | > 7.00 | > 7.00 |  | N#CCCN(C1CC1)S(=O)(=O)N1CCN(c2ncnc3[nH]ccc23)CC12CC2 [Example 41, 7-(7H-Pyrrolo[2,3-d]pyrimidin-4-yl)-4,7-diaza-spiro[2.5]octane-4-sulfonic acid (2-cyano-ethyl)-cyclopropyl-amide] |
| > 7.00 | > 7.00 | > 7.00 |  | O=S(=O)(NCCO)N1CCN(c2ncnc3[nH]ccc23)CC12CC2 [Example 53, 7-(7H-Pyrrolo[2,3-d]pyrimidin-4-yl)-4,7-diaza-spiro[2.5]octane-4-sulfonic acid (2-hydroxy-ethyl)-amide] |
